From ChEMBL document CHEMBL4665675 (J Med Chem, 2020)

System: not listed separately
Assay: Antiproliferative activity against human KB-8511 cells incubated for 96 hrs by spectrophotometric method
Assay type: functional, cell-based
Settings: KB-ChR-8-5-11, 96 h

| Structure (SMILES) | IC50 [µM] |
| --- | --- |
| COc1c(CO)c2c(c(OC)c1OC)-c1ccc(OC)c(=O)cc1[C@@H](NC(C)=O)CC2 | > 1 |

System: HeLa
Assay: Cytotoxicity against human HeLa cells after 24 to 72 hrs by Cell Titer Blue assay
Assay type: cell-based
Settings: not given

| Structure (SMILES) | IC50 [µM] |
| --- | --- |
| COc1cc2c(c(OC)c1OC)-c1ccc(NCCC(O)C(=O)N[C@@H](CC(C)C)C(=O)OC3CCCC3)c(=O)cc1[C@@H](NC(C)=O)CC2 (stereo partly drawn) | 0.23 |
| COc1cc2c(c(OC)c1OC)-c1ccc(NCCCCCC(=O)N[C@@H](CC(C)C)C(=O)OC3CCCC3)c(=O)cc1[C@@H](NC(C)=O)CC2 | 4.62 |
| COc1cc2c(c(OC)c1OC)-c1ccc(NCCCCCCCC(=O)N[C@@H](CC(C)C)C(=O)OC3CCCC3)c(=O)cc1[C@@H](NC(C)=O)CC2 | 4.93 |
| COc1cc2c(c(OC)c1OC)-c1ccc(NCCC(O)C(=O)N[C@H](C(=O)OC3CCCC3)c3ccccc3)c(=O)cc1[C@@H](NC(C)=O)CC2 (stereo partly drawn) | 0.22 |
| COc1cc2c(c(OC)c1OC)-c1ccc(NCCCC(=O)N[C@@H](CC(C)C)C(=O)OC3CCCC3)c(=O)cc1[C@@H](NC(C)=O)CC2 | 1.19 |
| COc1cc2c(c(OC)c1OC)-c1cc(NC(=O)c3ccc(CN[C@@H](CC(C)C)C(=O)OC4CCCC4)cc3)ccc1[C@@H](NC(C)=O)CC2 | 1.48 |

Target: T1, carboxylesterase 1 (CES1) (Homo sapiens, UniProt P23141)
T1 sequence (P23141 whole entry): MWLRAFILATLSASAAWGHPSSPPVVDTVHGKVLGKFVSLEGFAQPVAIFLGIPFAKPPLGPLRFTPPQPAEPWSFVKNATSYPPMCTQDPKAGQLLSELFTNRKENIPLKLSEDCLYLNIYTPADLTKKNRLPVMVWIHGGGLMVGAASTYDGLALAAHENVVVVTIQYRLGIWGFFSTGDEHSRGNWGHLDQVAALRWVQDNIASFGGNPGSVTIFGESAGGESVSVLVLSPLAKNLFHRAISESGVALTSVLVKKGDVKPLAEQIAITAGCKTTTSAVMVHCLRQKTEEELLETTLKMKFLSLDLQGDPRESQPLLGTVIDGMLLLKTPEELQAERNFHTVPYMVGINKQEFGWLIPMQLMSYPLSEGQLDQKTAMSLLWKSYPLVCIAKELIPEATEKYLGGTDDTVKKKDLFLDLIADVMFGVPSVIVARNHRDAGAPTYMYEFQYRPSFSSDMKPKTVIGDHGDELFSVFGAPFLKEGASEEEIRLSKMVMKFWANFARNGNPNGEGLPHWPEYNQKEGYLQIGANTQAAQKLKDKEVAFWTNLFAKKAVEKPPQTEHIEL
Assay: Substrate activity at human carboxylesterase 1 expressed in baculovirus infected Sf9 insect cells assessed as enzyme-catalysed compound cleavage incubated for 2 hrs by HPLC analysis
Assay type: ADME
Settings: read-out: Activity

| Structure (SMILES) | metabolised at 2 h [%] |
| --- | --- |
| COc1cc2c(c(OC)c1OC)-c1ccc(NCCC(O)C(=O)N[C@@H](CC(C)C)C(=O)OC3CCCC3)c(=O)cc1[C@@H](NC(C)=O)CC2 (stereo partly drawn) | 13 |
| COc1cc2c(c(OC)c1OC)-c1ccc(NCCCCCC(=O)N[C@@H](CC(C)C)C(=O)OC3CCCC3)c(=O)cc1[C@@H](NC(C)=O)CC2 | 36 |
| COc1cc2c(c(OC)c1OC)-c1ccc(NCCCCCCCC(=O)N[C@@H](CC(C)C)C(=O)OC3CCCC3)c(=O)cc1[C@@H](NC(C)=O)CC2 | 76 |
| COc1cc2c(c(OC)c1OC)-c1ccc(NCCC(O)C(=O)N[C@H](C(=O)OC3CCCC3)c3ccccc3)c(=O)cc1[C@@H](NC(C)=O)CC2 (stereo partly drawn) | 0 |
| COc1cc2c(c(OC)c1OC)-c1ccc(NCCCC(=O)N[C@@H](CC(C)C)C(=O)OC3CCCC3)c(=O)cc1[C@@H](NC(C)=O)CC2 | 18 |
| COc1cc2c(c(OC)c1OC)-c1cc(NC(=O)c3ccc(CN[C@@H](CC(C)C)C(=O)OC4CCCC4)cc3)ccc1[C@@H](NC(C)=O)CC2 | 33 |

System: PANC-1
Assay: Antiproliferative activity against human PANC1 cells incubated for 72 hrs by WST assay
Assay type: functional, cell-based
Settings: PANC-1, 72 h

| Structure (SMILES) | IC50 [µM] |
| --- | --- |
| COc1ccc2c(c1)[C@@H](NC(C)=O)CCc1cc(OC)c(OC)c(OC)c1-2 | 0.08 |
| COC(=O)NC1CCc2cc(OC)c(OC)c(OC)c2-c2ccc(F)cc21 (stereo not drawn) | 7 |
| COc1cc2c(c(OC)c1OC)-c1ccc(F)cc1C(NC(C)=O)CC2 (stereo not drawn) | 7.9 |
| COc1cc2c(c(OC)c1OC)-c1ccc(O)cc1[C@@H](NC(C)=O)CC2 [N-ACETYLCOLCHINOL] | 4.4 |

System: DU-145
Assay: Antiproliferative activity against human DU145 cells incubated for 72 hrs by WST assay
Assay type: functional, cell-based
Settings: DU-145, 72 h

| Structure (SMILES) | IC50 [µM] |
| --- | --- |
| COc1ccc2c(c1)[C@@H](NC(C)=O)CCc1cc(OC)c(OC)c(OC)c1-2 | 0.78 |
| COC(=O)NC1CCc2cc(OC)c(OC)c(OC)c2-c2ccc(F)cc21 (stereo not drawn) | 1.4 |
| COc1cc2c(c(OC)c1OC)-c1ccc(F)cc1C(NC(C)=O)CC2 (stereo not drawn) | 0.76 |
| COc1cc2c(c(OC)c1OC)-c1ccc(O)cc1[C@@H](NC(C)=O)CC2 [N-ACETYLCOLCHINOL] | 0.72 |

Target: Tubulin
Assay: Inhibition of tubulin polymerization (unknown origin)
Assay type: protein-complex assay, Homo sapiens
Settings: not given

| Structure (SMILES) | IC50 [µM] |
| --- | --- |
| COc1cc2c(c(OC)c1OC)-c1ccc(OC)c(=O)cc1CCC2 | 2.6 |
| COc1cc2c(c(OC)c1OC)-c1ccc(OC)c(=O)cc1CC=C2 | 1.6 |
| COc1cc2c(c(OC)c1OC)-c1ccc(OC)c(=O)cc1C(=O)CC2 | 1.1 |

System: not listed separately
Assay: Inhibition of porcine tubulin polymerization by UV/visible spectrophotometry
Parameters: species or system Sus scrofa
Settings: not given

| Structure (SMILES) | IC50 [µM] |
| --- | --- |
| COc1ccc2c(c1O)COCc1cc(OC)c(OC)c(OC)c1-2 | 1 |

Species: Bos taurus
Assay: Inhibition of bovine brain tubulin polymerization preincubated for 15 mins followed by GTP addition and measured for 30 mins by spectrophotometric method
Settings: not given

| Structure (SMILES) | inhibition [%] |
| --- | --- |
| COc1c(CO)c2c(c(OC)c1OC)-c1ccc(OC)c(=O)cc1[C@@H](NC(C)=O)CC2 | 100 |

System: not listed separately
Assay: Inhibition of calf brain tubulin by turbidimetry
Parameters: species or system Bos taurus
Settings: not given

| Structure (SMILES) | IC50 [µM] |
| --- | --- |
| COc1ccc2c(c1)/C(=N\O)CCc1cc(OC)c(OC)c(OC)c1-2 | 0.33 |
| COc1ccc2c(c1)N(C(C)=O)CCCc1cc(OC)c(OC)c(OC)c1-2 | 2.3 |
| COc1ccc2c(c1)[C@@H](NC(C)=O)CCc1cc(OC)c(OC)c(OC)c1-2 | 0.3 |
| COc1ccc2c(c1)C(=O)CCc1cc(OC)c(OC)c(OC)c1-2 | 0.43 |
| COc1ccc2c(c1)-c1n[nH]cc1Cc1cc(OC)c(OC)c(OC)c1-2 | 0.47 |
| COc1ccc2c(c1)NC(=O)CCc1cc(OC)c(OC)c(OC)c1-2 | 21 |
| COc1ccc2c(c1)-c1nc(N)ncc1Cc1cc(OC)c(OC)c(OC)c1-2 | 0.67 |
